# From patent US20090192187A1, “DRY POWDER FORMULATION COMPRISING AN ANTIC[…]” (Chiesi Farmaceutici S.p.A., priority 2008, published 2009)
# Structures can show the parent of a compound that is named as a salt.
# How the values were obtained:
# muscarinic receptors = assay: Receptor potency and duration of action compared with tiotropium bromide
# M2 muscarinic receptors = biological target: T1, M2 muscarinic receptors (Homo sapiens, UniProt P08172); assay: Duration of action / dissociation kinetics at M2 receptors; settings: compared with tiotropium bromide
# T1 sequence (P08172 1-466): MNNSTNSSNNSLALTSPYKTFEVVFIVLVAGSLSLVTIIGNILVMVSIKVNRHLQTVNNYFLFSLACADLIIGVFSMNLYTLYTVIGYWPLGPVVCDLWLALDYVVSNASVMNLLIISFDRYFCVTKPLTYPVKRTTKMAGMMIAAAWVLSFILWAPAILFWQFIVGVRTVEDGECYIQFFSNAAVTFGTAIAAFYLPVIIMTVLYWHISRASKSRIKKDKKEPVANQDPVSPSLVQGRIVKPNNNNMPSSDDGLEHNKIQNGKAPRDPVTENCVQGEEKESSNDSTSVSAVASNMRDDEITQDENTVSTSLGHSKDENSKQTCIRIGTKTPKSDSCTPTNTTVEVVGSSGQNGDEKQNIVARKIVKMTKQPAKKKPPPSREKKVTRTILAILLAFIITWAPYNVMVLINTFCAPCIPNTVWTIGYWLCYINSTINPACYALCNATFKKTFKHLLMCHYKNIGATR
# [1] = system: Ach-induced increase in Penh (airway reactivity); assay: Bronchodilation activity: barometric plethysmography, acetylcholine challenge after nebulised compound; type: in vivo, guinea pig; settings: for bronchoprotective effect: twenty-four hours
# Procedure: Airway reactivity is measured using barometric plethysmography (Buxco, USA). Male guinea pigs (500-600 g) are individually placed in plexiglass chambers. After an acclimatisation period, animals are exposed to nebulised saline for 1 minute to obtain airway baseline reading. This is followed by a 1 minute challenge with nebulised acetylcholine (Ach)-2.5 mg/mL. After 60 minutes, 5 minute nebulisation of vehicle or the compound I′ in the range 2.5-250 μM are applied, and Ach challenge is then repeated after 2, 5, 24, 48 and 72 hours (h). Recording of pressure fluctuations in the chambers are taken for 5 minutes after each nebulisation and analysed to calculate Enhanced Pause (Penh). Airway reactivity is expressed as percentage increase in Penh compared with Penh values from the nebulisation of vehicle.
# [2] = Estimation of lung levels after nebulisation; type: in vivo, guinea pig; settings: nebulisation with submaximal bronchodilator activity, 2 hours after treatment
Compound,duration of action (muscarinic receptors),receptor potency (muscarinic receptors),duration of action on the M2 receptors (M2 muscarinic receptors),bronchoprotective effect ([1]; 25 μM inhaled) [%],"inhibition ([1]; 50 μM inhaled, 48 hours) [%]",bronchoprotective effect ([1]; 50 μM inhaled) [%],"maximal effect, inhibition of Ach-induced increase in Penh ([1]; 50 μM nebulised, two hours after end of nebulisation)","effect (inhibition of Ach-induced increase in Penh) ([1]; 250 μM inhaled, 48 hours) [%]","residual activity ([1]; 250 μM inhaled, 72 hours) [%]",time-course of the effect (duration of action) ([1]; increasing dose),duration of effect ([1]; inhalation of lower concentrations (below 25 μM)) [h],"dose dependence of inhibition of Ach-induced increase in Penh ([1]; two hours after end of nebulisation, 2.5-250 μM)",retained dose in the target organ (lung) [2]
"O=C(C[N+]12CCC(CC1)C(OC(=O)N(Cc1cc(F)c(F)c(F)c1)c1cccc(F)c1)C2)c1cccs1 (stereo not shown) [chloride salt of compound 1, 3-[[[(3-fluorophenyl)[(3,4,5-trifluorophenyl)methyl]amino]carbonyl]oxy]-1-[2-oxo-2-(2-thienyl)ethyl]-1-azoniabicyclo[2.2.2]octane]",equieffective to tiotropium bromide,equieffective to tiotropium bromide,significantly short-acting,,,,,,,,,,
"3-[[[(3-fluorophenyl)[(3,4,5-trifluoro phenyl)methyl]amino]carbonyl]oxy]-1-[2-oxo-2-(2-thienyl)ethyl]-1-azoniabicyclo[2.2.2]octane [compound 1′]",,,,63.7±15.1,49.2±23.2,87.1±8.7,99.6±0.4,83.0±16.1,34.8±20.9,increasing duration of action with increasing dose,≤ 5,dose-dependently inhibited,about 50 μg/kg
